Measured values published in paper PMC9469100, “Turning Nonselective Inhibitors of Type I Protein Arginine Methyltransferases into Potent and Selective Inhibitors of Protein Arginine Methyltransferase 4 through a Deconstruction–Reconstruction and Fragment-Growing Approach” (Journal of Medicinal Chemistry, 2022).
pIC50, pKd: −log10 of the molar value. Where two headings read alike, the source gives them in different places. One block for each molecule: values may come before it.

Legend:
[1] = Parallel artificial membrane permeability assay (PAMPA); assay type: in vitro ADME; conditions: phosphate buffer pH 7.4, donor 0.2 mM, 24 h at room temperature
Description: A donor solution (0.2 mM) was prepared by diluting 20 mM dimethyl sulfoxide (DMSO) compound stock solution using phosphate buffer (pH 7.4, 0.01 M). Filters were coated with 5 μL of a 1% (w/v) dodecane solution of L-α-phosphatidylcholine. Donor solution (150 μL) was added to each well of the filter plate. To each well of the acceptor plate, 300 μL of solution (5% DMSO in phosphate buffer) was added. […] The sandwich was incubated for 24 h at room temperature under gentle shaking. After the incubation time, the sandwich plates were separated, and 250 μL of the acceptor plate was transferred to a UV quartz microtiter plate and measured by UV spectroscopy, using a Multiskan GO microplate spectrophotometer (Thermo Fisher Scientific) at 250–500 nm at a step of 5 nm. Reference solutions (250 μL) were prepared diluting the sample stock solutions to the same concentration as that with no membrane barrier.

[2] = target: T1, ASH1L (Homo sapiens, UniProt Q9NR48); experiment: HotSpot KMT activity assay, ASH1L; assay type: biochemical
T1 construct: ASH1L (residues 2046–2330, with an N-terminal His-tag); His (N); purchased Reaction Biology Corporation
Description: (§1) Then, ^3H-SAM (final concentration 1 μM) was delivered into the reaction mixture to initiate the reaction. After incubation for 60 min at 30 °C, the reaction mixture was delivered to filter-paper for detection (as assessed by scintillation). […] No inhibitor control (DMSO) was considered as 100% enzyme activity. Data were analyzed using Excel and GraphPad Prism 6.0 software (GraphPad Software Inc., San Diego, CA). Values obtained for each compound are mean ± SD determined for two separate experiments.

[3] = target: PRMT3 (Homo sapiens, UniProt O60678); experiment: Radioisotope-based filter-binding (HotSpot) assay, PRMT3; conditions: for IC50: 5 μM histone H4, 1 μM 3H-SAM
PRMT3, sequence (O60678 2-531): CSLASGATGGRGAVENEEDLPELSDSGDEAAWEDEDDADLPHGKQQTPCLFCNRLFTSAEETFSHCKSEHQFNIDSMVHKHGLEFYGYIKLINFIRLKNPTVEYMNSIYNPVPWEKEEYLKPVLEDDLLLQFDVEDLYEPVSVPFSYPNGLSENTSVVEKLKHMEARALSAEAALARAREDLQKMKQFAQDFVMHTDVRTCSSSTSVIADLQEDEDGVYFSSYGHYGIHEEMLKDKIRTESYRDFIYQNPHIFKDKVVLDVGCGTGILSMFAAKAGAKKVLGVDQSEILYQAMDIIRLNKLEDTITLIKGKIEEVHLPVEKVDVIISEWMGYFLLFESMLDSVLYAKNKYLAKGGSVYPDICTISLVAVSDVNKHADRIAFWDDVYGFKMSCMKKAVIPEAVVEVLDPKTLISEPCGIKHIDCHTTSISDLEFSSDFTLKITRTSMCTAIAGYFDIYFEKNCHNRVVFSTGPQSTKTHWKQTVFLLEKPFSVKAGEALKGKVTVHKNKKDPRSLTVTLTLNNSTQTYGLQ
Description: (§2) Then, ^3H-SAM (final concentration 1 μM) was delivered into the reaction mixture to initiate the reaction. After incubation for 60 min at 30 °C, the reaction mixture was delivered to filter paper for detection (as assessed by scintillation). Data were analyzed using Excel and GraphPad Prism 6.0 software (GraphPad Software Inc., San Diego, CA) for IC50 curve fits using sigmoidal dose vs response-variable slope (four parameters) equations.

[4] = target: PRMT6 (Homo sapiens, UniProt Q96LA8); experiment: Radioisotope-based filter-binding (HotSpot) assay, PRMT6; conditions: for IC50: read-out: IC50 (μM) PRMT6, radioisotope-based filter assay, 5 μM GST-GAR, 1 μM 3H-SAM
PRMT6, sequence (Q96LA8 2-375): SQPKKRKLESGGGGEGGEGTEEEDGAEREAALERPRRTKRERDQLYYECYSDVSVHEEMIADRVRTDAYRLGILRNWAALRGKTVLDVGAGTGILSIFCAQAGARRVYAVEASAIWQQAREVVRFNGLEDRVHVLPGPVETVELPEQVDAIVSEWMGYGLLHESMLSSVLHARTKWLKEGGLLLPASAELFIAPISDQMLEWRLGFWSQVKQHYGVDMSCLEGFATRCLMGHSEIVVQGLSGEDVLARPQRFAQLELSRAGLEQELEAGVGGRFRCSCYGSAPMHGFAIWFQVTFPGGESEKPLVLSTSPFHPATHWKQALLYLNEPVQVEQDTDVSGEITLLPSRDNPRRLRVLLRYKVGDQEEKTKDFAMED
Description: as §2

[5] = target: T2, human PRMT4 (full length) (Homo sapiens, UniProt Q86X55); experiment: SPR binding to immobilized PRMT4; conditions: for koff / kon: immobilized PRMT4; for kon: read-out: kon; for τR: in vitro residence time, τ = 1/koff
T2 construct: Full-length recombinant PRMT4 (Active motif, # 81107); purchased Active motif # 81107
T2 sequence (Q86X55 1-608): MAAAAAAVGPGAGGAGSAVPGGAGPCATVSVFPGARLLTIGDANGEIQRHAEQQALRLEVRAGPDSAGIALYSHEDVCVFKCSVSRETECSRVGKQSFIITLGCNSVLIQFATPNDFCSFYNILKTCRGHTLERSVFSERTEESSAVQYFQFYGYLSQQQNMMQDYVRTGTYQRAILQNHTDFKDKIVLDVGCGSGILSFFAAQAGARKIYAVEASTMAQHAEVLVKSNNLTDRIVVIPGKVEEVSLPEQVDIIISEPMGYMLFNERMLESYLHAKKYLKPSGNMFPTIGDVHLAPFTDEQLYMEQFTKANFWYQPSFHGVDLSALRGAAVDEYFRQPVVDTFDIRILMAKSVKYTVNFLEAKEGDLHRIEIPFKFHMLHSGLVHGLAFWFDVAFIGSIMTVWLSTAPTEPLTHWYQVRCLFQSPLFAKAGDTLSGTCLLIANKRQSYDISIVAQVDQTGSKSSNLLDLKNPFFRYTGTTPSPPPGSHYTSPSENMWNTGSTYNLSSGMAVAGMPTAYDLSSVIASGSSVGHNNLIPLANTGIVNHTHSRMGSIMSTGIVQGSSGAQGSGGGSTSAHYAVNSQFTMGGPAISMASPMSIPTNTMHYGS
Description: To this aim, human PRMT4 (full length) was covalently immobilized on a sensor chip surface using an amine-coupling approach, and the three compounds were injected at different concentrations over the protein surface. To reduce false positives from detergent-sensitive, nonspecific aggregation-based binding, detergents (0.05% Tween-20) were added to the running buffer in all experiments.
SPR experiments were performed on a Biacore T200 biosensor (Cytiva). PBS buffer (phosphate-buffered saline, pH 7.4) supplemented with 0.05% Tween-20 was used as the running buffer. […] One flow cell was left empty for background subtractions. […] Each compound was tested in […], prepared starting from 640 to 10 nM. Binding experiments were performed at 25 °C by using a flow rate of 30 μL/min, with 90 s monitoring of association and 90 s monitoring of dissociation. Regeneration of the surfaces was performed, when necessary, by a 10 s injection of 5 mM NaOH. […] The corrected sensorgrams for each compound were fitted simultaneously using a 1:1 Langmuir model to obtain equilibrium dissociation constants (KD) and kinetic dissociation (koff) and association (kon) constants.

[6] = target: T3, PRMT4 (Homo sapiens, UniProt Q86X55); experiment: Radioisotope-based filter-binding (HotSpot) assay, PRMT4; conditions: for IC50: 5 μM histone H3, 1 μM 3H-SAM
T3 sequence (Q86X55 2-608): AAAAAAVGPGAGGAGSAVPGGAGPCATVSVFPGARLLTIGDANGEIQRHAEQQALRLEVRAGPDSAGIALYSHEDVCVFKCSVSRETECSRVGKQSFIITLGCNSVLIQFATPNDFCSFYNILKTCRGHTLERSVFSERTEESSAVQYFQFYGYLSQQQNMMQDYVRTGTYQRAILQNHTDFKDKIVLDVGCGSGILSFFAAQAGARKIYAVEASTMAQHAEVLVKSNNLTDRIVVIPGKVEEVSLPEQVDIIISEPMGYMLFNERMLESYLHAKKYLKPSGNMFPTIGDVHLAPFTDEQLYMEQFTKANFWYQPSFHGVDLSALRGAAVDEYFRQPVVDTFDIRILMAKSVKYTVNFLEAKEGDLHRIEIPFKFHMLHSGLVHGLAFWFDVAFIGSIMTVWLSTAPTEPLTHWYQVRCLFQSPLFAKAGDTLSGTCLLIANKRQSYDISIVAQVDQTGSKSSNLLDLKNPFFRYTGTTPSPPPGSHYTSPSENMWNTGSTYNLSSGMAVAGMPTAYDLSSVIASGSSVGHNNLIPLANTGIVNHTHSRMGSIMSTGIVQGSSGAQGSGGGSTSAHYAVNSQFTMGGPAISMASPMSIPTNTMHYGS
Description: as §2

[7] = target: T4, PRMT7 (Homo sapiens, UniProt Q9NVM4); experiment: Radioisotope-based filter-binding (HotSpot) assay, PRMT7; conditions: for IC50: 5 μM GST-GAR, 1 μM 3H-SAM
T4 sequence (Q9NVM4 2-692): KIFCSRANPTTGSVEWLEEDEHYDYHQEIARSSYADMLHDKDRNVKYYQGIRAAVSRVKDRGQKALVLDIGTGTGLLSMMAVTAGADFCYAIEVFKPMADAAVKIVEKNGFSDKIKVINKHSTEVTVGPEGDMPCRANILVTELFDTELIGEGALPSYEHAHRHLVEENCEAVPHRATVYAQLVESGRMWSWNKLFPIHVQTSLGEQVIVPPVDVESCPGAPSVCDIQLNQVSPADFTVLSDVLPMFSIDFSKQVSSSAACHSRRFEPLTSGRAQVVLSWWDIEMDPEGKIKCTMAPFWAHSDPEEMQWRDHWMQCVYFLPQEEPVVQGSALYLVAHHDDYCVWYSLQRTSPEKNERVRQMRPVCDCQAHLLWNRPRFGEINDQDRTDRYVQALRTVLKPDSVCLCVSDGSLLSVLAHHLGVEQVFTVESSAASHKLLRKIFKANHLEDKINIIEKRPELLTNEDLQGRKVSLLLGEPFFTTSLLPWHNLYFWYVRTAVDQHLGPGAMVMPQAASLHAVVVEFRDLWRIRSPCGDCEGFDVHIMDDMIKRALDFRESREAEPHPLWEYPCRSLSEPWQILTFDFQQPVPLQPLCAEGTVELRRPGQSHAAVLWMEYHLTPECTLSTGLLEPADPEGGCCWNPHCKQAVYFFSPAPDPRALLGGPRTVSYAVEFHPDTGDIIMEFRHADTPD
Description: as §2

[8] = target: PRMT5/MEP50 complex (Homo sapiens, UniProt O14744); experiment: Radioisotope-based filter-binding (HotSpot) assay, PRMT5; conditions: for IC50: read-out: IC50 (μM) PRMT5, radioisotope-based filter assay, 5 μM histone H2A, 1 μM 3H-SAM
PRMT5/MEP50 complex, sequence (O14744 2-637): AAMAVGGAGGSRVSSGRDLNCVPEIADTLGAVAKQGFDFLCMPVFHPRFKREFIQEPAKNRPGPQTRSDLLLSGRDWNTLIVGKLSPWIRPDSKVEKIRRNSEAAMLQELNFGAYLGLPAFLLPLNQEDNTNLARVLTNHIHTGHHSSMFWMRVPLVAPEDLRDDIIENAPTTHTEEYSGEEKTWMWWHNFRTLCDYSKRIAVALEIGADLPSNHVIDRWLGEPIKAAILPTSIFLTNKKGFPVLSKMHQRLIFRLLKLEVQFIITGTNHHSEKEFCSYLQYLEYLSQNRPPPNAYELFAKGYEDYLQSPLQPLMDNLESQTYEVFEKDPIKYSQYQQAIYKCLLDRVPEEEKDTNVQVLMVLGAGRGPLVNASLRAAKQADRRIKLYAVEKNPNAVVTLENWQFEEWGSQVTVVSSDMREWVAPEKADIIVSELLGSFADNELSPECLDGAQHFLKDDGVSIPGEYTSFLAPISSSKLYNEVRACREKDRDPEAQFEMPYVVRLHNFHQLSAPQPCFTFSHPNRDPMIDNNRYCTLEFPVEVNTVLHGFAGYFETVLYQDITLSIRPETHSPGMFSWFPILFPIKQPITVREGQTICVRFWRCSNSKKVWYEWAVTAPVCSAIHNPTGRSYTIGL
PRMT5/MEP50 complex, sequence (Q9BQA1 2-342 partner limits assumed): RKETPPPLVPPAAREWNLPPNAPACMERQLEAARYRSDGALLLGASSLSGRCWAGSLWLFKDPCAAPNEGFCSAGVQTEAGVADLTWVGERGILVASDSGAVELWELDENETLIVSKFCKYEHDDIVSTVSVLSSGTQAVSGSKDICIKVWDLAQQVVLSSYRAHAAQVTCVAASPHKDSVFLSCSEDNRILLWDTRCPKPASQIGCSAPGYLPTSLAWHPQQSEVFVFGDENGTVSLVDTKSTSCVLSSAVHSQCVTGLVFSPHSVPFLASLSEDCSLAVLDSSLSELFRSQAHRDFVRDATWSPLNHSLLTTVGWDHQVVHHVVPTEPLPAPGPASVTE
Description: as §2

[9] = target: ΔN(1–60)-PRMT8 (Homo sapiens, UniProt Q9NR22); experiment: Radioisotope-based filter-binding (HotSpot) assay, PRMT8
ΔN(1–60)-PRMT8, sequence (Q9NR22 61-394, stated change not applied): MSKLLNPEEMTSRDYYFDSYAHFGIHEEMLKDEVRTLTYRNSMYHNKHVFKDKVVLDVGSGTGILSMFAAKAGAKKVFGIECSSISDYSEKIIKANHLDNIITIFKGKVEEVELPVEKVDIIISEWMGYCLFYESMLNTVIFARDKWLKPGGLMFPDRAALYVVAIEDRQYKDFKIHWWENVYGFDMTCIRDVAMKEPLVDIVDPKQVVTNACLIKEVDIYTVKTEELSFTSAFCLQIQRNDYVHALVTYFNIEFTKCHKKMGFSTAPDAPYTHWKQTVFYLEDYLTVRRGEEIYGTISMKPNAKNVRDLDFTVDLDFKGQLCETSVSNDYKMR
Description: as §2

[10] = target: T5, SETD8 (Homo sapiens, UniProt Q9NQR1); experiment: HotSpot KMT activity assay, SETD8; assay type: biochemical; conditions: 10-dose mode, 3-fold dilution starting at 100 µM; read-out: ref. cmpd. IC50 (µM), SETD8
T5 construct: SETD8 (residues 190–352, C-terminus); N-terminal His-tag; His (N); purchased Reaction Biology Corporation
T5 sequence (Q9NQR1 231-393): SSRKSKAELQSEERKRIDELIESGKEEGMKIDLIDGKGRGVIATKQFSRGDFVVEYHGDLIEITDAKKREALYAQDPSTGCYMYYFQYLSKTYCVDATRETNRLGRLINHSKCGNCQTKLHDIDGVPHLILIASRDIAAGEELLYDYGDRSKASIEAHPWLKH
Description: as §1

[11] = on increasing the linker between 4-hydroxy-2-naphthoate and guanidine (values equal the ratio to the IC50 of 12c)
[12] = IC50 (μM) PRMT7, radioisotope-based filter assay
[13] = read-out: IC50 (μM) PRMT3, radioisotope-based filter assay

Compound: CC(C)NCC(O)COc1cccc2ccccc12 (stereo not shown) [propranolol, reference compound]
Papp at 24 h, 0.2 mM [1]: 6 ×10⁻⁶ cm/s

Compound: CN1C(=O)[C@@]23C[C@]4([C@]56C[C@@]78SS[C@@](CO)(C(=O)N7[C@H]5Nc5ccccc56)N(C)C8=O)c5ccccc5N[C@@H]4N2C(=O)[C@]1(CO)SS3 [chaet, chaetocin, reference compound]
pIC50 [2]: 6.85

Compound: COC(=O)c1cc(O)c2cc(NC(=O)NCCCCCCNC(=N)NC[C@H]3O[C@@H](n4cnc5c(N)ncnc54)[C@H](O)[C@@H]3O)ccc2c1 [12d, Methyl 6-(3-(6-(3-(((2R,3S,4R,5R)-5-(6-Amino-9H-purin-9-yl)-3,4-dihydroxytetrahydrofuran-2-yl)methyl)guanidino)hexyl)ureido)-4-hydroxy-2-naphthoate]
IC50 ([3]; IC50 (μM) PRMT3, radioisotope-based filter assay): 12.2 µM
pIC50 ([3]; IC50 PRMT3 (Figure 5 heatmap), radioisotope-based filter assay): 4.92
pIC50 [4]: 4.33
pKd [5]: 5.55
koff ([5]; SPR): 0.76 s⁻¹
kon ([5]; SPR): 270000 M⁻¹ s⁻¹
τR [5]: 1.31 s
IC50 ([6]; IC50 (μM) PRMT4, radioisotope-based filter assay): 0.068 µM
pIC50 ([6]; IC50 PRMT4 (Figure 5 heatmap), radioisotope-based filter assay): 7.21
gain in the inhibitory activity against PRMT4 [6, 11]: 6.2 fold
IC50 [7, 12]: 0.41 µM
pIC50 ([7]; IC50 PRMT7 (Figure 5 heatmap), radioisotope-based filter assay): 6.38
pIC50 [8]: 5.59
gain in the inhibitory activity against PRMT5 [8, 11]: 19.8 fold

Compound: Cc1ccc(NC2=CC(=O)c3sc(C)nc3C2=O)cc1 [ryuv, ryuvidine, reference compound]
IC50 [10]: 0.186 µM

Further lines, results first:

IC50 [3, 13]: 57.2 µM
IC50 [4]: 72.8 µM
pIC50 ([9]; read-out: IC50 PRMT8 (Figure 5 heatmap)): 5.08
IC50 [7, 12]: 0.3 µM
pIC50 ([7]; read-out: IC50 PRMT7 (Figure 5 heatmap), radioisotope-based filter assay): 6.50
IC50 [8]: 52.1 µM
Compound: COC(=O)c1cc(O)c2cc(NC(=O)NCCCNC(=N)NC[C@H]3O[C@@H](n4cnc5c(N)ncnc54)[C@H](O)[C@@H]3O)ccc2c1 [12a, Methyl 6-(3-(3-(3-(((2R,3S,4R,5R)-5-(6-Amino-9H-purin-9-yl)-3,4-dihydroxytetrahydrofuran-2-yl)methyl)guanidino)propyl)ureido)-4-hydroxy-2-naphthoate]

IC50 [3, 13]: 43.4 µM
IC50 [4]: > 100 µM
koff ([5]; SPR): 0.015 s⁻¹
pKd ([5]; SPR, immobilized PRMT4, 25 °C, KD from ratio koff/kon): 5.64
kon ([5]; SPR): 6520 M⁻¹ s⁻¹
τR [5]: 66.7 s
IC50 ([9]; read-out: IC50 (μM) PRMT8, 5 μM histone H4, 1 μM 3H-SAM): 18.7 µM
IC50 ([6]; read-out: IC50 (μM) PRMT4, radioisotope-based filter assay): 2.14 µM
pIC50 ([6]; read-out: IC50 PRMT4 (Figure 5 heatmap), radioisotope-based filter assay): 5.67
IC50 ([7]; read-out: IC50 (μM) PRMT7, radioisotope-based filter assay): 0.55 µM
IC50 [8]: 76.7 µM
Compound: COC(=O)c1cc(O)c2cc(NC(=O)NCCCCNC(=N)NC[C@H]3O[C@@H](n4cnc5c(N)ncnc54)[C@H](O)[C@@H]3O)ccc2c1 [12b, Methyl 6-(3-(4-(3-(((2R,3S,4R,5R)-5-(6-Amino-9H-purin-9-yl)-3,4-dihydroxytetrahydrofuran-2-yl)methyl)guanidino)butyl)ureido)-4-hydroxy-2-naphthoate]
